Measured values published in BindingDB's records for doi:10.1021/jm9707030 (Boehringer Ingelheim Pharmaceuticals, 1998).

How the values were obtained:
[1] = target: T1, Gag-Pol polyprotein [600-1027,R876K]/[600-1155] (Human immunodeficiency virus 1, UniProt P03366, R876K); experiment: HIV-1 RT Assay
T1 construct: 600-1027; 600-1155

[2] = target: T2, Gag-Pol polyprotein [600-1027,Y780C]/[600-1155,Y780C] (Human immunodeficiency virus 1, UniProt P03366, Y780C); experiment: HIV-1 RT Assay; conditions: pH 7.8; 22 °C
T2 construct: 600-1027; 600-1155

Row | Compound | IC50 [1] | other results
1 | CCN1c2ncc(COc3ccccc3O)cc2C(=O)N(C)c2ccc(Cl)nc21 [5-chloro-2-ethyl-13-(2-hydroxyphenoxymethyl)-9-methyl-2,4,9,15-tetraazatricyclo[9.4.0.0^{3,8}]pentadeca-1(11),3,5,7,12,14-hexaen-10-one] | – | IC50 ([1]; pH 7.8, 22 °C): 100 nM
2 | CCN1c2ncc(CNc3cccc(N)c3)cc2C(=O)N(C)c2ccc(Cl)nc21 [13-{[(3-aminophenyl)amino]methyl}-5-chloro-2-ethyl-9-methyl-2,4,9,15-tetraazatricyclo[9.4.0.0^{3,8}]pentadeca-1(11),3,5,7,12,14-hexaen-10-one] | – | IC50 [2]: 100 nM
3 | CCN1c2ncc(CS(=O)(=O)c3ccccc3)cc2C(=O)N(C)c2ccc(Cl)nc21 [13-[(benzenesulfonyl)methyl]-5-chloro-2-ethyl-9-methyl-2,4,9,15-tetraazatricyclo[9.4.0.0^{3,8}]pentadeca-1(15),3(8),4,6,11,13-hexaen-10-one] | 100 nM | –
4 | CCN1c2ncc(COc3cc[n+]([O-])c(C)c3)cc2C(=O)N(C)c2ccc(Cl)nc21 [2-Chloro-5,11-dihydro-11-ethyl-5-methyl-8-((4-(2-methyl-1-oxo-pyridinyl))oxy)methyl-6H-dipyrido[3,2-b:2 ,3-e][1,4]diazepin-6-one] | 100 nM | –
